ChEMBL document CHEMBL2384977, “Synthesis and biological evaluation of novel styryl benzimidazole derivatives as probes for imaging of neurofibrillary tangles in Alzheimer's disease” (Bioorg Med Chem, 2013)
One block for each compound: values may come before it.

Tests used:
Details in all cases: in vivo
Brain [1] = assay: Ratio of drug level in ICR mouse brain at 2.6 to 3.3 MBq, iv measured at 2 mins to drug level in ICR mouse brain at 2.6 to 3.3 MBq, iv measured at 60 mins; type: ADME, organism-based
Brain [2] = assay: Ratio of drug level in ICR mouse brain at 0.68 to 1.32 MBq, iv measured at 2 mins to drug level in ICR mouse brain at 0.68 to 1.32 MBq, iv measured at 60 mins; type: ADME, organism-based
Brain [3] = assay: Ratio of drug level in mouse brain measured at 2.5 mins to drug level in mouse brain measured at 20 mins; type: ADME, tissue-based

Ratio (Brain [1]): 5.38
SMILES: [11CH3]Nc1ccc(-c2ccc3ccccc3n2)cc1

Ratio (Brain [2]): 1.83
SMILES: Nc1ccc(-c2ccc3cc(OCC[18F])ccc3n2)cc1

Ratio (Brain [3]): 2.92
SMILES: [18F]CCC1CCN(c2ccn3c(n2)nc2ccccc23)CC1
